According to article PMC9452909, “Monomethylsulochrin isolated from biomass extract of Aspergillus sp. against Leishmania amazonensis: In vitro biological evaluation and molecular docking” (Frontiers in Cellular and Infection Microbiology, 2022):
≈ marks a conversion by molar mass, not a printed value. Read-outs that look alike come from different tables or passages of the source.

Assays:
[1] = system: L. infantum intracellular amastigote forms; set-up: method as in Hay et al. (2008); details: ref Hay et al. (2008); cited from earlier work
[2] = system: L. infantum promastigote forms; set-up: method as in Hay et al. (2008); details: ref Hay et al. (2008); cited from earlier work
[3] = system: L. mexicana promastigote forms; set-up: method as in Hay et al. (2008); details: ref Hay et al. (2008); cited from earlier work
Cytotoxicity assay (MTT) = format: cell-based; details: mouse
Experimental: The animals were stimulated by intraperitoneal inoculation of 3.0 ml of sodium thioglycolate at 3.0%. After 72 h of elicitation, the animals were euthanized with 10% ketamine (Syntec, São Paulo, BRA) and 2% xylazine (Syntec, São Paulo, BRA) according to the weight of each animal and, after death, the animal’s skin was retracted by incision and subsequent divulsion for peritoneum exposure. A total of 10.0 ml of sterile pH 7.2 phosphate-buffered saline (PBS) was inoculated, and a light manual massage was performed. The cells were then harvested from the peritoneum and dispensed in a sterile conical tube. The peritoneal lavage was centrifuged at 380g for 5 min, and cells were suspended in culture medium (RPMI 1640 medium supplemented with 10% FBS, penicillin [100 U/ml], and [100 μg/ml] streptomycin) and incubated at 37°C, 5% CO2 overnight ([Almeida-Souza et al., 2018]).
Wells without cells were used as blank, and wells with cells and 1% DMSO were used as control. After 24-h incubation period, cell viability was assessed by MTT. The cytotoxicity of 50% (CC50) was calculated following the method described elsewhere by [Oliveira et al. (2018)]. The selectivity index (SI) was obtained from the ratio of peritoneal macrophages CC50 and IC50.

[4] = system: L. amazonensis promastigote; experiment: Antileishmanial activity assay, promastigote forms (live parasite counting); format: cell-based, Leishmania amazonensis; details: 24 h; for IC50: Leishmania amazonensis, mean ± SD
Experimental: Promastigote forms of L. amazonensis H21 (MHOM/BR/76/MA-76) were cultured at 26°C in Schneider’s insect medium. The culture was supplemented with 10% FBS, 100 IU/ml of penicillin, and 100 µg/ml of streptomycin in a maximum of 10 in vitro passages ([Almeida-Souza et al., 2016]).
In 96-well plates, the promastigote forms of L. amazonensis (10^6 parasites/ml) from a 3- to 5-day-old culture were incubated for 24 h in the presence of different concentrations of pseurotin A at 7.24–579.5 μM and monomethylsulochrin at 9.0–721.9 μM, in a final volume of 100 µL per well. The viability of parasites was evaluated after treatment by counting the total number of live promastigotes, considering the flagellar motility, using Neubauer’s camera and optical light microscope ([Rottini et al., 2019]). This count was compared with the score of non-treated promastigote growth. This experiment was carried out in independent triplicate with each condition performed in triplicate. The results were expressed as parasite growth inhibitory concentration of 50% (IC50). Wells with medium and without parasites were used as blanks, and wells with parasites only incubated with medium were used as controls. […] Activity against intracellular amastigote was performed in 24-well plates, with coverslips, with peritoneal macrophages cultured (5 × 10^5 cells per well) and infected with promastigote forms of L. amazonensis using a ratio of 10:1 parasites per cell. After 6 h, the cells were washed three times with PBS to remove free parasites. […] For the light microscopy analysis, the coverslips with the infected and treated cells were then fixed with Bouin solution and stained with Giemsa. The IC50 values of all compounds tested were calculated from the total of intracellular amastigote from 100 cells. Parameters of infection analysis were performed according to [Silva-Silva et al. (2021a)].

[5] = system: L. amazonensis intracellular amastigote; experiment: Activity against intracellular amastigote in infected peritoneal macrophages; format: cell-based, Leishmania amazonensis; details: 24 h; for IC50: Leishmania amazonensis, Peritoneal macrophage, in Mus musculus, read-out: L. amazonensis Intracellular amastigote IC50
Experimental: The viability of parasites was evaluated after treatment by counting the total number of live promastigotes, considering the flagellar motility, using Neubauer’s camera and optical light microscope ([Rottini et al., 2019]). This count was compared with the score of non-treated promastigote growth. This experiment was carried out in independent triplicate with each condition performed in triplicate. […] Wells with medium and without parasites were used as blanks, and wells with parasites only incubated with medium were used as controls. […] After 6 h, the cells were washed three times with PBS to remove free parasites. […] For the light microscopy analysis, the coverslips with the infected and treated cells were then fixed with Bouin solution and stained with Giemsa. […] Parameters of infection analysis were performed according to [Silva-Silva et al. (2021a)].

fungi = system: fungi; set-up: method as in Zhang et al., 2014; details: ref Zhang et al., 2014; cited from earlier work
bacteria = system: bacteria; set-up: method as in Zhang et al., 2014; details: ref Zhang et al., 2014; cited from earlier work
[6] = system: L. amazonensis promastigote forms; experiment: Flow cytometry with TMRE, mitochondrial membrane potential; format: cell-based, Leishmania amazonensis; details: 24 h, p = 0.0286
Experimental: Heat-killed parasites (60°C bath for 60 min) and untreated parasites were used as positive and negative controls, respectively. After incubation, parasites were centrifuged at 210g for 5 min at room temperature, washed in PBS, incubated with 300 μl of TMRE (50 nM) in the dark for 15 min, at room temperature, and submitted to flow cytometry through CytoFlex flow cytometer (Beckman Coulter Life Sciences, IN, USA). TMRE was excited by 488-nm blue laser, and its fluorescence was collected at 585/42 nm bandpass filter. CytExpert software version 2.1 (Beckman Coulter Life Sciences, IN, USA) was used for flow cytometry analyses ([Mondêgo-Oliveira et al., 2021]).

[7] = system: L. amazonensis promastigote forms; experiment: Transmission electron microscopy, ultrastructural alterations; format: cell-based, Leishmania amazonensis; details: 18.04 µM (IC50), 24 h; p = 0.0016, 0.0016, 0.0480, 0.0079
Experimental: The transmission electron microscopy was performed to evaluate if monomethylsulochrin induced any ultrastructural alterations to the L. amazonensis promastigote forms. Parasites were treated with monomethylsulochrin with IC50 for 24 h and fixed with 2.5% glutaraldehyde in sodium cacodylate buff;er (0.1 M, pH 7.2) for overnight, then washed three times with 0.1 M sodium cacodylate buffer and postfixed in a solution containing 1% osmium tetroxide, 0.8% ferrocyanide, and 5 mM calcium chloride. 0.1 M sodium cacodylate buffer was used for washing, before being dehydrated in graded acetone and embedded in EPON 812 resin. Ultrathin sections were stained with 5% uranyl acetate aqueous solution and lead citrate (1.33% lead nitrate and 1.76% sodium citrate) and examined in a JEM-1011 transmission electron microscope (JEOL, Tokyo, Japan) at 80 kV ([Silva-Silva et al., 2021b]). The images acquired were used for quantification of the number of vacuoles and lipid corpuscles and area of vacuoles, lipid corpuscles, and mitochondria, using ImageJ software (NIH). Quantitative analysis was conducted with five untreated parasites and at least 10 treated parasites. The number of vacuoles and lipid corpuscles was expressed as mean ± standard deviation (SD), and the area of vacuoles, lipid corpuscles, and mitochondria were expressed as percentage of each parasite total area.

[8] = system: L. donovani amastigotes, axenically cultured (cell free); set-up: method as in Martińez-Luis et al. (2012); details: isolated from endophytic Aspergillus sp. strain F1544; ref Martińez-Luis et al. (2012); cited from earlier work
Leishmania = system: Leishmania; set-up: method as in Campos et al., 2017; details: ref Campos et al., 2017, cited from earlier work
[9] = peritoneal macrophages (thioglycolate-elicited), BALB/c peritoneal macrophages, 24 h, MTT, mean ± SD, read-out: Cytotoxicity CC50

Compound: CC(C)=CCC/C(C)=C/Cc1c(O)cc(O)c(C(=O)c2ccccc2)c1O [3-geranyl-2,4,6-trihydroxybenzophenone]
- IC50 against intracellular amastigote forms of L. infantum [1]: 0.7 µg/mL
- IC50 against promastigote forms of L. infantum [2]: 15 µg/mL
- IC50 against promastigote forms of L. mexicana [3]: 4.05 µg/mL

Compound: C[C@@H]1[C@H](O)[C@@H](C)/C=C/C=C/C=C/C=C/C=C/C=C/C=C/[C@H](O[C@@H]2O[C@H](C)[C@@H](O)[C@H](N)[C@@H]2O)C[C@@H]2O[C@](O)(C[C@@H](O)C[C@@H](O)[C@H](O)CC[C@@H](O)C[C@@H](O)CC(=O)O[C@H]1C)C[C@H](O)[C@H]2C(=O)O [Amphotericin B, amphotericin B, reference compound]
- CC50 at 24 h (Cytotoxicity assay (MTT); BALB/c): 8.45 ± 1.08 µM
- SIpro (selectivity index = CC50 macrophages/IC50 promastigote forms) [4]: 312.96
- Infection parameters (all) ([5]; 3 µM): significant reduction
- SIama (selectivity index = CC50 macrophages/IC50 amastigote forms) [5]: 13.43
- IC50 [5]: 629 ± 1390 nM

Compound: COC(=O)c1cc(O)cc(OC)c1C(=O)c1c(O)cc(C)cc1OC [Monomethylsulochrin, monomethylsulochrin]
- CC50 at 24 h (Cytotoxicity assay (MTT); [9]): 91.6 ± 1.28 µM
- Antifungal activity (fungi): no antifungal activity
- Antibacterial activity (bacteria): weak antibacterial activity
- Change in Δψm ([6]; 18.04 µM): significant decrease
- Decrease in the mitochondrial membrane potential ([6]; IC50 concentration): 25.9%
- SIpro (selectivity index = CC50 macrophages/IC50 promastigote forms) [4]: 5.08
- IC50 [4]: 18 ± 1.11 µM
- Parameters of infection (amastigote number in 100 cells, percentage of infected cells, mean of amastigotes per infected cell) ([5]; 6 µM, p = 0.0082, 0.0033, 0.0041): statistically significant reduction
- SIama (selectivity index = CC50 macrophages/IC50 amastigote forms) [5]: 18.00
- IC50 ([5]; infected BALB/c peritoneal macrophages, mean ± SD): 5090 ± 1060 nM
- Ultrastructural changes: number of vacuoles, vacuoles area, lipid corpuscles area, mitochondria area [7]: statistically significant changes

Compound: CC/C=C\[C@H](O)[C@H](O)C1=C(C)C(=O)[C@]2(O1)C(=O)N[C@@](OC)(C(=O)c1ccccc1)[C@@H]2O [Pseurotin A, pseurotin A]
- CC50 at 24 h (Cytotoxicity assay (MTT); [9]): 654.4 ± 1.19 µM
- IC50 against axenically cultured (cell free) L. donovani amastigotes [8]: 5.8 µg/mL (≈ 13.4 µM)
- IC50 [4]: > 500 µM

Compound: anhydrocochlioquinone A [anhydrocochlioquinone A (ANDC-A)]
- Leishmanicidal activity EC50 (Leishmania): 22.4 µg/mL
- EC50 (Leishmania; read-out: Leishmanicidal activity EC50): 44 µM
